Results from PMC12180637, “Active peptides of TSP-1 inhibit retinal angiogenesis through the CD36 pathway in a rat model of choroidal neovascularization” (PLOS One, 2025).
Where “and” joins values, the source holds several entries; their conditions need not be identical. Equal entries are not always repeated. Square brackets hold non-standard residues; d marks the D form. Nva = CCC[C@H](N)C(=O)O; Sar = CNCC(=O)O

Legend:
[1] = system: VEGF-induced angiogenesis; conditions: cited from earlier work
Source text: (§1) Additionally, TSP-1 could interact with various ligands, including extrac ...

tumor growth = conditions: cited from earlier work; for apoptotic index of endothelial cells (in words): in vivo studies, mouse tumor models; for tumor growth (in words): syngeneic and xenograft mouse models
Source text: as §1

[2] = stated in brackets for the recombinant human VEGF165 protein used; no test or source described; cited from earlier work
Description: CCK-8 and EdU assays were conducted to evaluate the cellular proliferation after a 24 h exposure to exogenous VEGF, which was amined to analyze the impact of 10 μg/mL VR-13 peptide on RF/6A cell proliferation induced through exogenous VEGF.

RF/6A cells [3] = test: EdU proliferation assay; assay type: cell-based; conditions: Fig 2 data, 1 ng/mL exogenous VEGF alone, 24 h, single replicates (n = 4)
Description: (§2) RF/6A cells were obtained from Cell Cook, China. The cells were maintained in minimum essential medium supplemented with 10% fetal Bovine serum (Viva Cell, China) and 1% penicillin-streptomycin solution (Viva Cell, China). Additionally, the samples were cultured in an incubator under the condition of 37 °C and 5% CO2.
(§3) The Cell Counting Kit-8 (CCK-8) from Proteintech (China) and 5-ethynyl-2′-deoxyuridine (EdU)-488™ kit from Beyotime (China) were employed for the assessment of the proliferative viability of RF/6A cell. Additionally, 10^4 cells were plated in 96-well plates. After 24 h of intervention, according to different groups, CCK-8 detection reagent was added, and the optical density was recorded at 450 nm during the following 4 h. Regarding the EdU assay, 2 × 10^4 cells were cultured in 24-well plates after 24 h of intervention according to different groups. Firstly, the EdU working solution (20μM) preheated at 37 ° C was combined with medium at the ratio of 1:1. Secondly, the cells were washed three times with (phosphate buffered saline) PBS after the fixing with 4% paraformaldehyde for 15 min. Subsequently, the samples were permeabilized with PBS that contained 0.3% Triton X-100 for 10 min, followed by three times of washing with PBS, after which the EdU detection was conducted. […] Finally, fluorescence detection was performed after nuclear staining by Hoechst 33342.

RF/6A cells [4] = test: Flow cytometry, total apoptosis rate; assay type: cell-based
[5] = system: CD36 knockdown RF/6A cells; test: EdU assay in CD36 knockdown cells; assay type: cell-based; conditions: Fig 5 data, exogenous VEGF alone, single replicates (n = 4)
Description: The Cell Counting Kit-8 (CCK-8) from Proteintech (China) and 5-ethynyl-2′-deoxyuridine (EdU)-488™ kit from Beyotime (China) were employed for the assessment of the proliferative viability of RF/6A cell. Additionally, 10^4 cells were plated in 96-well plates. After 24 h of intervention, according to different groups, CCK-8 detection reagent was added, and the optical density was recorded at 450 nm during the following 4 h. Regarding the EdU assay, 2 × 10^4 cells were cultured in 24-well plates after 24 h of intervention according to different groups. Firstly, the EdU working solution (20μM) preheated at 37 ° C was combined with medium at the ratio of 1:1. Secondly, the cells were washed three times with (phosphate buffered saline) PBS after the fixing with 4% paraformaldehyde for 15 min. Subsequently, the samples were permeabilized with PBS that contained 0.3% Triton X-100 for 10 min, followed by three times of washing with PBS, after which the EdU detection was conducted. Whereafter, 100 μL Click reaction solution was added to each well and incubated at room temperature in the dark for 30 min, followed by washing again with PBS, the Click reaction solution configuration method was shown in Table 1. Finally, fluorescence detection was performed after nuclear staining by Hoechst 33342. […]

CD31 = test: Western blot of CD31 in RF/6A cells; assay type: cell-based; conditions: exogenous VEGF 1 ng/mL
Description: (§4) Western blot analysis was employed in this study for the assessment of the expression levels of proteins. Total protein was extracted with Radioimmunoprecipitation (RIPA) buffer (Solarbio, China) that contained phenylmethanesulfonyl fluoride (PMSF), followed by separation by 10% sodium dodecyl sulfate–polyacrylamide gel electrophoresis (SDS-PAGE, Yazyme, China). Additionally, the constant pressure of 80 V was used for 40–50 min during the electrophoresis of the proteins in compression gel. Besides, the voltage was adjusted to 120 V after the entering of proteins to the separating gel. Subsequently, proteins were transferred onto a polyvinylidene difluoride (PVDF) membrane (Millipore, USA), and the operation time was determined according to the molecular weight of the protein (VEGF-55 min, CD31-91 min). The membrane was blocked with 5% non-fat milk for 2 h and incubated with primary antibodies overnight at 4 °C, and the primary antibody was diluted with Tris-Buffered Saline with Tween 20 (TBST) following the instructions. Subsequently, the samples were washed three times with TBST, incubated with the corresponding secondary antibody for 90 min at room temperature, and washed three times with TBST. Besides, Electrochemiluminescence (Invitrogen iBright™ FL1500) was used for the visualization of proteins, followed by the imaging analysis of the experimental results. […]

RF/6A cells [6] = test: Wound-healing assay; assay type: cell-based; conditions: 1 ng/mL exogenous VEGF, 24 h
Description: as §2
After the drawing of 3 parallel lines at the external bottom surface of a 6-well plate, 4 × 10^5 RF/6A cells were seeded in it and incubated to a density of 80–90%. Next, scratches perpendicular to the drawn lines were made at the bottom of each well by a 200 μL pipette tip. Subsequently, the wells were rinsed three times with PBS to eliminate the floating cells. Whereafter, the medium was replaced with the serum that contained 1% fetal bovine. The wound healing process was assessed at the time point of 0 h and 24 h, alongside the acquirement of microscope images at 10× for the record and statistical analysis of the scratch distance. Additionally, the scratch healing rate was calculated as follows:
Scratch_healing_rate=0h_scratch_distance−24h_scratch_distance/0h_scratch_distance100% (1)

VEGF = test: Western blot of VEGF in RF/6A cells; assay type: cell-based; conditions: exogenous VEGF 1 ng/mL
Description: as §4

RF/6A cells [7] = test: CCK-8 cell viability assay; assay type: cell-based; conditions: CCK-8, different concentrations of recombinant human VEGF165 (S2 Fig A)
Description: as §2, §3

Substance | VEGF-induced angiogenesis (in words) [1] | apoptotic index of endothelial cells (in words) (tumor growth) | tumor growth (in words) (tumor growth) | EC50 [2] [ng/mL] | EdU positive(%) (RF/6A cells [3]) | apoptosis rate (RF/6A cells [4]; Fig 3 data, RF/6A, 1 ng/mL exogenous VEGF alone, single replicates (n = 6)) | apoptosis of RF/6A cells after exogenous VEGF (in words) (RF/6A cells [4]; exogenous VEGF) | EdU positive(%) [5] | CD31 expression in RF/6A cells after exogenous VEGF (in words) (CD31) | migration of RF/6A cells exposed to VEGF (in words) (RF/6A cells [6]) | VEGF expression in RF/6A cells after exogenous VEGF (in words) (VEGF) | optimal concentration for inducing significant proliferation of RF/6A (RF/6A cells [7]) [ng/mL]
Ac-Sar-Gly-Val-Dallolle-Thr-Nva-Ile-Arg-Pro-NHEt [ABT-510, anti-angiogenic nonapeptide based on TSP-1 type I repeats] | inhibit VEGF-induced angiogenesis | increase of the apoptotic index of endothelial cells | slow down the tumor growth |  |  |  |  |  |  |  |  | 
Ac-[Sar]GV[dI]T[Nva]IRP-NHEt [ABT-526, anti-angiogenic nonapeptide based on TSP-1 type I repeats] |  | increase of the apoptotic index of endothelial cells | slow down the tumor growth |  |  |  |  |  |  |  |  | 
VEGF |  |  |  | 0.3 to 3.75 | 37.99% and 38.36% and 36.47% and 33.64% | 8.99 and 11.46 and 10.46 and 11.80 and 11.97 and 12.71 | didn’t exhibit a connection with apoptosis | 24% and 28.99% and 30.32% and 23.72% | significantly upregulated | strong cell migration ability | significantly upregulated | 1
